# Values quoted from earlier work as cited in patent US20190091190A1, “COMBINATION THERAPY FOR TREATMENT OF MULTIPLE SCLEROSIS” (FWP IP ApS, priority 2012, published 2019).
# Where two headings read alike, the source gives them in different places.
# Columns and labels:
# [1] = system: patients with EDSS scores of 0-5.5 and relapses; settings: for reduction of frequency of MS relapses vs. placebo: 24 months
# patients with RRMS [2] = settings: for reduction of lymphocyte counts: after 1 month; for patients remaining relapse-free: 12 months
# patients with RRMS [3] = settings: for reduction of 12-week confirmed disability progression as measured by EDSS: at 2 years
# [4] = 7 mg or 14 mg added to glatiramer acetate, vs placebo added
# patients with RRMS [5] = settings: 7 mg po once-daily
# RRMS patients [6] = system: RRMS patients
# RRMS patients [7] = settings: for time to first relapse during the two years of the study: 45.6% on placebo
# [8] = 7 mg and 14 mg, add-on to IFN
# RRMS patients [9] = settings: 0.6 mg once-daily oral
# RRMS patients [10] = system: RRMS patients; remark: listed apart in the source
molecule,measurement,setting,value
CCCCCCCCc1ccc(CCC(N)(CO)CO)cc1 [fingolimod],AEs that led to discontinuation of the study drug,[1]; 0.5 mg,7.5 % of patients
same,lymphopenia of less than 0.2×10^9 per liter,[1]; 0.5 mg,3.5%
same,reduction of frequency of MS relapses vs. placebo,[1]; 0.5 mg/day,54%
same,reduction of risk of disability progression vs. placebo,"[1]; 0.5 mg/day, confirmed after 3 months",30%
same,reduction of risk of disability progression vs. placebo,"[1]; 0.5 mg/day, confirmed after 6 months",37%
same,AEs that led to discontinuation of the study drug,[1]; 1.25 mg,14.2 % of patients
same,lymphopenia of less than 0.2×10^9 per liter,[1]; 1.25 mg,5.4%
same,macular edema diagnosed,[1]; 1.25 mg,seven
same,reduction of frequency of MS relapses vs. placebo,[1]; 1.25 mg/day,60%
same,reduction of risk of disability progression vs. placebo,"[1]; 1.25 mg/day, confirmed after 3 months",32%
same,reduction of risk of disability progression vs. placebo,"[1]; 1.25 mg/day, confirmed after 6 months",40%
same,AE leading to the discontinuation of study medication,patients with RRMS [2]; 0.5 mg,5.6%
same,overall number of SAE,patients with RRMS [2]; 0.5 mg,7.0%
same,patients who developed macular edema,patients with RRMS [2]; 0.5 mg,0.5%
same,reduction of lymphocyte counts,patients with RRMS [2]; 0.5 mg,73%
same,1-year relapse rate lower than with Avonex,patients with RRMS [2]; 0.5 mg/day oral,52%
same,patients remaining relapse-free,patients with RRMS [2]; 0.5 mg/day oral,83%
same,AE leading to the discontinuation of study medication,patients with RRMS [2]; 1.25 mg,10.0%
same,overall number of SAE,patients with RRMS [2]; 1.25 mg,10.7%
same,patients who developed macular edema,patients with RRMS [2]; 1.25 mg,1%
same,reduction of lymphocyte counts,patients with RRMS [2]; 1.25 mg,77%
same,1-year relapse rate lower than with Avonex,patients with RRMS [2]; 1.25 mg/day oral,38%
same,patients remaining relapse-free,patients with RRMS [2]; 1.25 mg/day oral,80%
same,"time to development of transient, dose-dependent reduction in heart rate",patients with RRMS [2]; after the initial administration,≤ 1 h
Glatiramer acetate,reduction of new T1-hypointense lesions,patients with RRMS [3]; 20 mg sc once-daily,41%
same,reduction of number of new or newly enlarging T2-hyperintense lesions,patients with RRMS [3]; 20 mg sc once-daily,54%
same,reduction of proportion of patients who relapsed,patients with RRMS [3]; 20 mg sc once-daily,29%
same,reduction of 12-week confirmed disability progression as measured by EDSS,patients with RRMS [3]; 20 mg sc once-daily,7%
"C/C(O)=C(\C#N)C(=O)Nc1ccc(C(F)(F)F)cc1 [teriflunomide, (Z)-2-cyano-3-hydroxy-but-2-enoic acid-(4′-trifluoro-methylphenyl)-amide]",reducing T1-Gd lesions,[4],more effective than placebo
same,relapse rate,patients with RRMS [5],0.410
same,annualized relapse rate compared to placebo,RRMS patients [6]; 7 mg p.o. once-daily,significant reduction
same,risk of 12 wk sustained accumulation of disability compared to placebo,RRMS patients [6]; 7 mg p.o. once-daily,no significant difference
same,reduction in annualized relapse rate compared to placebo,RRMS patients [6]; 14 mg p.o. once-daily,36.3%
same,reduction in the risk of 12wk sustained accumulation of disability compared to placebo,RRMS patients [6]; 14 mg p.o. once-daily,31.5%
same,reduction of annualized relapse rate (ARR) at 2 years compared to placebo,RRMS patients [7]; 7 mg p.o. once-daily,31.2%
same,reduction of risk of disability progression,RRMS patients [7]; 7 mg p.o. once-daily,24%
same,reduction of the burden of disease (MRI) compared to placebo,RRMS patients [7]; 7 mg p.o. once-daily,39%
same,time to first relapse during the two years of the study,RRMS patients [7]; 7 mg,53.7%
same,reduction of annualized relapse rate (ARR) at 2 years compared to placebo,RRMS patients [7]; 14 mg p.o. once-daily,31.5%
same,reduction of risk of disability progression,RRMS patients [7]; 14 mg p.o. once-daily,30%
same,reduction of the burden of disease (MRI) compared to placebo,RRMS patients [7]; 14 mg p.o. once-daily,67%
same,time to first relapse during the two years of the study,RRMS patients [7]; 14 mg,56.5%
same,reduction in annualized relapse rate,[8],no significant effect
"COC(=O)/C=C/C(=O)OC [dimethylfumarate, trans-1,2-Ethylenedicarboxylic acid dimethyl ester]",reduction of annualized relapse rate versus placebo,patients with RRMS [3]; 240 mg po BID,44%
same,reduction of new T1-hypointense lesions,patients with RRMS [3]; 240 mg po BID,57%
same,reduction of number of new or newly enlarging T2-hyperintense lesions,patients with RRMS [3]; 240 mg po BID,71%
same,reduction of proportion of patients who relapsed,patients with RRMS [3]; 240 mg po BID,34%
same,reduction of 12-week confirmed disability progression as measured by EDSS,patients with RRMS [3]; 240 mg po BID,21%
same,reduction of annualized relapse rate versus placebo,patients with RRMS [3]; 240 mg po TID,51%
same,reduction of new T1-hypointense lesions,patients with RRMS [3]; 240 mg po TID,65%
same,reduction of number of new or newly enlarging T2-hyperintense lesions,patients with RRMS [3]; 240 mg po TID,73%
same,reduction of proportion of patients who relapsed,patients with RRMS [3]; 240 mg po TID,45%
same,reduction of 12-week confirmed disability progression as measured by EDSS,patients with RRMS [3]; 240 mg po TID,24%
same,most common adverse effects,patients with RRMS [3]; dimethylfumarate groups (BID and TID),flushing and gastrointestinal (GI) events
same,reduction in annualized relapse rate versus placebo,patients with RRM; 240 po BID,53%
same,reduction in proportion of patients who relapsed at 2 years versus placebo (primary endpoint),patients with RRM; 240 po BID,49%
same,reduction in annualized relapse rate versus placebo,patients with RRM; 240 po TID,48%
same,reduction in proportion of patients who relapsed at 2 years versus placebo (primary endpoint),patients with RRM; 240 po TID,50%
CCN(C(=O)c1c(O)c2c(Cl)cccc2n(C)c1=O)c1ccccc1 [laquinimod],reduction in ARR,"RRMS patients [9]; 24 months, p=0.0024",23%
same,reduction in progression of brain atrophy,RRMS patients [9]; p<0.0001,33%
same,reduction in the risk of EDDS progression,RRMS patients [9]; p=0.0122,36%
same,reduced ARR,"RRMS patients [10]; 0.6 mg once-daily oral, pre-specified sensitivity analysis corrected for baseline imbalances",21%
same,reduction in the risk of EDSS progression,"RRMS patients [10]; 0.6 mg, corrected analysis, p=0.044",34%
same,reduction in brain volume loss,"RRMS patients [10]; 0.6 mg, corrected analysis, p=<0.0001",28%
same,primary endpoint of reduction in ARR versus placebo,"RRMS patients [10]; 0.6 mg, uncorrected, p=0.075",did not reach statistical significance
